# Experimental data taken from patent EP1003508B1, “ANTIMUTAGENIC AGENTS” (The GRASSETTI Family Trust, priority 1997, dated 1999).
# Like-named read-outs stand apart in the source and are kept apart here.
# How the values were obtained:
# [1] = tested on: Salmonella Typhimurium bacteria T-100; test: microbe, parasite or virus in culture; assay type: cell-based; conditions: for Number of Colonies Per Plate With Inhibitor: inhibitor 0.3 mg/plate added one hour before carcinogen, average of 3; for inhibition at 0.3 mg/plate: Salmonella enterica, TYPHIMURIUM
# [2] = Observed toxicity / tolerability; conditions: can be taken in doses of at least approximately 0.1 gram per day for indefinite periods
# Excerpt: It can be taken in doses of at least approximately 0.1 gram per day for indefinite periods. This fills the requirements for a non-toxic, low-cost chemopreventive agent, which could be administered orally.
# [3] = biological target: T1, poly(ADP-ribose) polymerase (ADPRP) (Sus scrofa, UniProt I3LDH3); test: Inhibition of ADPRP enzyme activity; assay type: biochemical, pig
# T1 construct: ADPRP was prepared from pig thymus using the method of Khan and Shall; from tissue; host or cells: pig thymus
# Description: ADPRP was prepared from pig thymus using the method of Khan and Shall (Biochem. Soc. Transactions 4:778 (1976)) with various modifications. Enzyme activity was approximately linear up to 15-20 minutes with NAD substrate concentration of 25 µM. Typical maximum enzyme activity was around 0.003 nmol product formed/minute in the assay (i.e. approximately 0.1% of substrate utilized). KM was approximately 25 µM.
# Using a standard assay mix containing 2mM dithiothreitol (DTT) and […] crude enzyme/ml incubation, three experiments were performed with 6,6'-dithiodinicotinic acid added at concentrations varying from 5 µg/ml to 600 µg/ml (i.e. 1/60th molar equivalent of DTT to 2 molar equivalents). […] INHIBITION % OF CONTROLS
# These are values for individual incubations which were stopped at either 7.5, 15, or 20 minutes.
# metastases = conditions: mice; Grassetti 1970, Nature 228:282; cited from earlier work
# [4] = 2mM DTT, individual incubation, read-out: Percent Inhibition at: 7.5 min.
# [5] = 2mM DTT, individual incubation, read-out: Percent Inhibition at: 15 min.
# T1 sequence (I3LDH3 1-1017): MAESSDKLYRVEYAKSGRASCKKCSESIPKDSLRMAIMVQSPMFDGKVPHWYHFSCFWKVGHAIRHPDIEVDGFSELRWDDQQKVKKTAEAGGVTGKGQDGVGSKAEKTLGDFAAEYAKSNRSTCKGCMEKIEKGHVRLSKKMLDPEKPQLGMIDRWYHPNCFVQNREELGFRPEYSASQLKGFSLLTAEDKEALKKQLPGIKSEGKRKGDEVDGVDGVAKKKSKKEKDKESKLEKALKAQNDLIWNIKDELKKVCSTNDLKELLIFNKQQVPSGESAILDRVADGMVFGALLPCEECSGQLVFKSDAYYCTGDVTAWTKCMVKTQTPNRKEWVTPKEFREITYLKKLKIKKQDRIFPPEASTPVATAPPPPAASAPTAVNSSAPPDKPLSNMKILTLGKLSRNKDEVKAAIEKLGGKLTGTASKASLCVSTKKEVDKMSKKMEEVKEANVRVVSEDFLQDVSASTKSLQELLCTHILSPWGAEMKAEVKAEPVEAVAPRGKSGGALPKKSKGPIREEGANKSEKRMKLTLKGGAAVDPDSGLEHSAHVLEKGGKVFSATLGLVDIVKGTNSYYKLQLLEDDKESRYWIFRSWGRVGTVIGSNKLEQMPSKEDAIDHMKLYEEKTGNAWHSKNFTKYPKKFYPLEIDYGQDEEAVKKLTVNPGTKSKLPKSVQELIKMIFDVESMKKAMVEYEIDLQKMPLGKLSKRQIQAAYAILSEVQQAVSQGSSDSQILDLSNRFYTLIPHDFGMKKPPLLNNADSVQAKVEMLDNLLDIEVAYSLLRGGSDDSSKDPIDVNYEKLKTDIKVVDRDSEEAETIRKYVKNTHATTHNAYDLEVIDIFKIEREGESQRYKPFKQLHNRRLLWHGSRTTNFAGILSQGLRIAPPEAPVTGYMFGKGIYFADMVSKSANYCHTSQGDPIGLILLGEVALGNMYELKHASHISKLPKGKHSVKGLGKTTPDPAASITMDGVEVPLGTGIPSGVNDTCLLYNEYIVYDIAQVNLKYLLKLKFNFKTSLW
structure (smiles),measurement,setting,value
"O=C(O)c1ccc(SSc2ccc(C(=O)O)cn2)nc1 [6,6'-dithiodinicotinic acid]",Number of Colonies Per Plate With Inhibitor,[1]; 2-Aflatoxin 0 (control) µg/plate,104
same,Number of Colonies Per Plate With Inhibitor,[1]; 2-Aflatoxin 20 µg/plate,188
same,Number of Colonies Per Plate With Inhibitor,[1]; 2-Aflatoxin 50 µg/plate,358
same,Number of Colonies Per Plate With Inhibitor,[1]; 2-Aflatoxin 100 µg/plate,471
same,Number of Colonies Per Plate With Inhibitor,[1]; 2-Aminofluorene 0 (control) µg/plate,141
same,Number of Colonies Per Plate With Inhibitor,[1]; 2-Aminofluorene 5.0 µg/plate,705
same,Number of Colonies Per Plate With Inhibitor,[1]; 2-Aminofluorene 15.0 µg/plate,655
same,Number of Colonies Per Plate With Inhibitor,[1]; 2-Aminofluorene 25.0 µg/plate,791
same,Number of Colonies Per Plate With Inhibitor,[1]; Benzo-[a]-pyrene 0 (control) µg/plate,111
same,Number of Colonies Per Plate With Inhibitor,[1]; Benzo-[a]-pyrene 2.5 µg/plate,339
same,Number of Colonies Per Plate With Inhibitor,[1]; Benzo-[a]-pyrene 5.0 µg/plate,446
same,Number of Colonies Per Plate With Inhibitor,[1]; Benzo-[a]-pyrene 10.0 µg/plate,488
same,inhibition at 0.3 mg/plate,"[1]; 2-Aminofluorene 5.0 µg/plate, inhibitor 0.3 mg/plate, read-out: Decrease (%)",10%
same,inhibition at 0.3 mg/plate,"[1]; Benzo-[a]-pyrene 2.5 µg/plate, inhibitor 0.3 mg/plate, read-out: Decrease (%)",74%
same,inhibition at 0.3 mg/plate,"[1]; Benzo-[a]-pyrene 5.0 µg/plate, inhibitor 0.3 mg/plate, read-out: Decrease (%)",62%
same,inhibition at 0.3 mg/plate,"[1]; Benzo-[a]-pyrene 10.0 µg/plate, inhibitor 0.3 mg/plate, read-out: Decrease (%)",58%
same,inhibition at 0.3 mg/plate,"[1]; read-out: Decrease (%), 2-Aflatoxin 0 (control) µg/plate, inhibitor 0.3 mg/plate",0%
same,inhibition at 0.3 mg/plate,"[1]; read-out: Decrease (%), 2-Aflatoxin 20 µg/plate, inhibitor 0.3 mg/plate",63%
same,inhibition at 0.3 mg/plate,"[1]; read-out: Decrease (%), 2-Aflatoxin 50 µg/plate, inhibitor 0.3 mg/plate",68%
same,inhibition at 0.3 mg/plate,"[1]; read-out: Decrease (%), 2-Aflatoxin 100 µg/plate, inhibitor 0.3 mg/plate",72%
same,inhibition at 0.3 mg/plate,"[1]; read-out: Decrease (%), 2-Aminofluorene 0 (control) µg/plate, inhibitor 0.3 mg/plate",0%
same,inhibition at 0.3 mg/plate,"[1]; read-out: Decrease (%), 2-Aminofluorene 15.0 µg/plate, inhibitor 0.3 mg/plate",72%
same,inhibition at 0.3 mg/plate,"[1]; read-out: Decrease (%), 2-Aminofluorene 25.0 µg/plate, inhibitor 0.3 mg/plate",63%
same,inhibition at 0.3 mg/plate,"[1]; read-out: Decrease (%), Benzo-[a]-pyrene 0 (control) µg/plate, inhibitor 0.3 mg/plate",0%
same,inhibition at 0.3 mg/plate,"[1]; read-out: number of mutants decreased, present in the culture prior to addition of carcinogen (benzo-[a]-pyrene, 2-aflatoxin, or 2-aminofluorene)",~70%
same,mutagenic effect of carcinogenic chemicals,"[1]; benzo-[a]-pyrene, 2-aflatoxin, and 2-aminofluorene",greatly diminished
same,toxicity,[2],not a toxic compound
same,inhibition at 5 µg/mL,[3]; [4],0%
same,inhibition at 5 µg/mL,[3]; [5],14%
same,inhibition at 25 µg/mL,[3]; [4],0%
same,inhibition at 25 µg/mL,[3]; [5],0%
same,inhibition at 50 µg/mL,[3]; [4],37%
same,inhibition at 50 µg/mL,[3]; [5],38%
same,inhibition at 100 µg/mL,[3]; [4],68%
same,inhibition at 100 µg/mL,[3]; [5],54%
same,inhibition at 150 µg/mL,"[3]; 150 µg/ml, 2mM DTT, individual incubation, read-out: Percent Inhibition at: 7.5 min.",88%
same,inhibition at 150 µg/mL,"[3]; 150 µg/ml, 2mM DTT, individual incubation, read-out: Percent Inhibition at: 15 min.",70%
same,inhibition at 150 µg/mL,"[3]; 150 µg/ml, 2mM DTT, individual incubation, read-out: Percent Inhibition at: 20 min.",90%
same,extent of conversion of substrate to bound product after addition of excess DTT,"[3]; 150 µg/ml, excess DTT added to incubation",did not increase
same,inhibition at 300 µg/mL,"[3]; 300 µg/ml, 2mM DTT, individual incubation, read-out: Percent Inhibition at: 20 min.",93%
same,inhibition at 600 µg/mL,"[3]; 600 µg/ml, 2mM DTT, individual incubation, read-out: Percent Inhibition at: 20 min.",83%
same,inhibition of ADPRP,"[3]; at 50 µg/ml, 2mM DTT",Significant and specific inhibition
same,inhibition of ADPRP,[3]; at 150 µg/ml and above (0.5 molar equivalents of DTT and above),almost complete inhibition
same,inhibition of ADPRP,[3]; at 5 and 25 µg/ml,No inhibition
same,prevention of metastases,metastases,known to prevent metastases in mice
